Biological target: T1, recombinant full-length USP7 (Homo sapiens, UniProt Q93009)
T1 construct: A 25 μl reaction volume containing recombinant full-length USP7 (62 pM)
Assay: USP7-mediated ubiquitin-rhodamine cleavage assay
Type: biochemical
Conditions: recombinant full-length USP7 62 pM; ubiquitin-rhodamine 100 nM; 30-minute incubation with compound, 1 hour reaction at room temperature; read-out: Potency: USP7 IC50
Procedure, shortened: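 After compound and enzyme (62 pM) sat together 30 min at RT, 100 nM fluorogenic ubiquitin-rhodamine substrate was added for 1 h protected from light. Acetic acid quenched the reaction prior to the fluorescence read.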

T1 sequence (Q93009 whole entry): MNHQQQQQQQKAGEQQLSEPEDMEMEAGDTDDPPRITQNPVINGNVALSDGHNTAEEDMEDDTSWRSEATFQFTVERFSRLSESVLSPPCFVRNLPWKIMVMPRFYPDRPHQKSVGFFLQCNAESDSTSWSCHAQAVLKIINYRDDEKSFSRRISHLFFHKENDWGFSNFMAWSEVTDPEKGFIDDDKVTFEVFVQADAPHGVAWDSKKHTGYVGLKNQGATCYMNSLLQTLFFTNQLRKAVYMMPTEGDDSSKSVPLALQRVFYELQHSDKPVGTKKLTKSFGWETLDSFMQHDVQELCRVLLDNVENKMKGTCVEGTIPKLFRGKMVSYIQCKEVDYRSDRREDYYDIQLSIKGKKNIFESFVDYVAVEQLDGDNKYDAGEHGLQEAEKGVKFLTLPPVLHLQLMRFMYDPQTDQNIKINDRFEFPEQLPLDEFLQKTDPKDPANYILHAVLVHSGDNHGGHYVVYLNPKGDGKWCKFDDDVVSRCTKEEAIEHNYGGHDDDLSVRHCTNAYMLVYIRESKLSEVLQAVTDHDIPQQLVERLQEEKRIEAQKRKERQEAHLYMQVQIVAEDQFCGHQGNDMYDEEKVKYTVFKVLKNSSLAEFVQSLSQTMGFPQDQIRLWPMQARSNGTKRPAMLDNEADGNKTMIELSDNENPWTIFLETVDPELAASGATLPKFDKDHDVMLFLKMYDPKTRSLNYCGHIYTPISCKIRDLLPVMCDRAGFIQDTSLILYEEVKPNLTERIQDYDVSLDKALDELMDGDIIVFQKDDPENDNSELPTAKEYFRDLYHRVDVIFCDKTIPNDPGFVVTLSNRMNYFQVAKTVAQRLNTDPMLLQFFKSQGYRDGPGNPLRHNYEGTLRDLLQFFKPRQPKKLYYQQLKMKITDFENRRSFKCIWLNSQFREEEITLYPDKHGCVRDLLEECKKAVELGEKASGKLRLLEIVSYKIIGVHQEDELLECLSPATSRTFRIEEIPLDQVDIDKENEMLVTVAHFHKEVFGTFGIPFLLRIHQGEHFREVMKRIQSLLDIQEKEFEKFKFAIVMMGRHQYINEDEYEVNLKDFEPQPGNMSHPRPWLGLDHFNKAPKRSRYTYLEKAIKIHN

| SMILES | IC50 |
| --- | --- |
| Cc1cc(Cl)cc(-c2ncnc3cc(CN4C(=O)C5CCCCC5C4=O)sc23)c1O[C@@H]1CNC[C@@H]1F (stereo partly drawn) [Example 159, 2-((4-(5-Chloro-2-(((3R,4S)-4-fluoropyrrolidin-3-yl)oxy)-3-methylphenyl)thieno[3,2-d]pyrimidin-6-yl)methyl)hexahydro-1H-isoindole-1,3(2H)-dione] | 1 to 10 µM |
| Cc1cc(C#N)cc(-c2ncnc3cc(CN4C(=O)CCC4=O)sc23)c1O[C@@H]1CNC[C@@H]1F [Example 109, 3-(6-((2,5-Dioxopyrrolidin-1-yl)methyl)thieno[3,2-d]pyrimidin-4-yl)-4-(((3R,4S)-4-fluoropyrrolidin-3-yl)oxy)-5-methylbenzonitrile] | < 1 µM |
| Cc1cc(Cl)cc(-c2ncnc3cc(CN4C(=O)c5ccccc5C4=O)sc23)c1OC1CCNCC1 [Example 202, 2-((4-(5-Chloro-3-methyl-2-(piperidin-4-yloxy)phenyl)thieno[3,2-d]pyrimidin-6-yl)methyl)isoindoline-1,3-dione] | < 1 µM |
| Cc1cc(Cl)cc(-c2ccnc3cc(Cn4c(=O)ccn(C5COC5)c4=O)sc23)c1O[C@H]1CCCNC1 [Example 5, (S)-3-((7-(5-Chloro-3-methyl-2-(piperidin-3-yloxy)phenyl)thieno[3,2-b]pyridin-2-yl)methyl)-1-(oxetan-3-yl)pyrimidine-2,4(1H,3H)-dione] | < 1 µM |
| Cc1cc(Cl)cc(-c2ccnc3cc(Cn4c(=O)ccn(C5CC5)c4=O)sc23)c1O[C@H]1CCCNC1 [Example 285, 3-[[7-[5-chloro-3-methyl-2-[[(3S)-3-piperidyl]oxy]phenyl]thieno[3,2-b]pyridin-2-yl]methyl]-1-cyclopropyl-pyrimidine-2,4-dione; 2,2,2-trifluoroacetic acid] | < 1 µM |
| Cc1cc(Cl)cc(-c2ccnc3cc(CO)sc23)c1O[C@@H]1CNC[C@H]1C [Example 55, (7-(5-Chloro-3-methyl-2-(((3S,4R)-4-methylpyrrolidin-3-yl)oxy)phenyl)thieno[3,2-b]pyridin-2-yl)methanol] | 10 to 30 µM |
| Cc1cc(C#N)cc(-c2ccnc3cc(CO)sc23)c1OCC1(C#N)CNC1 [Example 11, 3-((4-Cyano-2-(2-(hydroxymethyl)thieno[3,2-b]pyridin-7-yl)-6-methylphenoxy)methyl)azetidine-3-carbonitrile] | 1 to 10 µM |

Continued, values first:

| IC50 | SMILES |
| --- | --- |
| < 1 µM | Cc1cc(Cl)cc(-c2ccnc3cc(CN4C(=O)CCC4=O)sc23)c1OCC12CNCC1C2 (stereo not drawn) [Example 52, 1-((7-(2-((3-Azabicyclo[3.1.0]hexan-1-yl)methoxy)-5-chloro-3-methylphenyl)thieno[3,2-b]pyridin-2-yl)methyl)pyrrolidine-2,5-dione] |
| < 1 µM | Cc1cc(Cl)cc(-c2ccnc3cc(Cn4c(=O)ccn(CC(F)(F)F)c4=O)sc23)c1O[C@@H]1CCNC[C@@H]1C [Example 173, 3-((7-(5-Chloro-3-methyl-2-(((3S,4R)-3-methylpiperidin-4-yl)oxy)phenyl)thieno[3,2-b]pyridin-2-yl)methyl)-1-(2,2,2-trifluoroethyl)pyrimidine-2,4(1H,3H)-dione] |
| < 1 µM | Cc1cc(Cl)cc(-c2ccnc3cc(CN4C(=O)C5C(C4=O)C5(C)C)sc23)c1O[C@H]1CCNC[C@H]1F (stereo partly drawn) [Example 392, 3-[[7-[5-chloro-2-[[(3R,4S)-3-fluoro-4-piperidyl]oxy]-3-methyl-phenyl]thieno[3,2-b]pyridin-2-yl]methyl]-6,6-dimethyl-3-azabicyclo[3.1.0]hexane-2,4-dione; 2,2,2-trifluoroacetic acid] |
| 1 to 10 µM | CCC(O)c1cc2nccc(-c3cc(Cl)cc(C)c3OCC3(C)CNC3)c2s1 (stereo not drawn) [Example 33, 1-(7-(5-Chloro-3-methyl-2-((3-methylazetidin-3-yl)methoxy)phenyl)thieno[3,2-b]pyridin-2-yl)propan-1-ol] |
| 10 to 30 µM | Cc1cc(Cl)cc(-c2ccnc3cc(CO)sc23)c1OCC12CNCC1C2 (stereo not drawn) [Example 69, (7-(2-((3-Azabicyclo[3.1.0]hexan-1-yl)methoxy)-5-chloro-3-methylphenyl)thieno[3,2-b]pyridin-2-yl)methanol] |
| < 1 µM | Cc1cc(Cl)cc(-c2ccnc3cc(CN4C(=O)CN(C)C4=O)sc23)c1OCC1(C)CNC1 [Example 25, 3-((7-(5-Chloro-3-methyl-2-((3-methylazetidin-3-yl)methoxy)phenyl)thieno[3,2-b]pyridin-2-yl)methyl)-1-methylimidazolidine-2,4-dione] |
| < 1 µM | Cc1cc(Cl)cc(-c2ccnc3cc(CN4C(=O)CCC4=O)sc23)c1O[C@@H]1CNC[C@@H]1C(F)F [Example 111, 1-((7-(5-Chloro-2-(((3S,4S)-4-(difluoromethyl)pyrrolidin-3-yl)oxy)-3-methylphenyl)thieno[3,2-b]pyridin-2-yl)methyl)pyrrolidine-2,5-dione] |

Same assay, conditions: recombinant full-length USP7 62 pM; ubiquitin-rhodamine 100 nM; 30-minute incubation, 1 hour reaction at room temperature; read-out: Potency (USP7 IC50)

| IC50 | SMILES |
| --- | --- |
| < 1 µM | CCN1CC[C@@H](Oc2c(C)cc(Cl)cc2-c2ccnc3cc(Cn4c(=O)ccn(CC(F)(F)F)c4=O)sc23)[C@@H](C)C1 [Example 690, 3-[[7-[5-chloro-2-[[(3S,4R)-1-ethyl-3-methyl-4-piperidyl]oxy]-3-methyl-phenyl]thieno[3,2-b]pyridin-2-yl]methyl]-1-(2,2,2-trifluoroethyl)pyrimidine-2,4-dione] |
| < 1 µM | Cc1cc(Cl)cc(-c2ccnc3cc(Cn4c(=O)ccn(CC(F)(F)F)c4=O)sc23)c1OCCN1CCC1 [Example 701, 3-[[7-[2-[2-(azetidin-1-yl)ethoxy]-5-chloro-3-methyl-phenyl]thieno[3,2-b]pyridin-2-yl]methyl]-1-(2,2,2-trifluoroethyl)pyrimidine-2,4-dione; 2,2,2-trifluoroacetic acid] |

Same assay, conditions: recombinant full-length USP7 62 pM; ubiquitin-rhodamine 100 nM; 30-minute pre-incubation, 1 hour reaction at room temperature; read-out: Potency (USP7 IC50)

| SMILES | IC50 |
| --- | --- |
| Cc1cc(Cl)cc(-c2ccnc3cc(Cn4c(=O)ccn(CC(F)(F)F)c4=O)sc23)c1OC1CC2CNC1C2 (stereo not drawn) [Example 540, 3-[[7-[2-(3-azabicyclo[2.2.1]heptan-5-yloxy)-5-chloro-3-methyl-phenyl]thieno[3,2-b]pyridin-2-yl]methyl]-1-(2,2,2-trifluoroethyl)pyrimidine-2,4-dione] | < 1 µM |
| CCN1C[C@H]2C[C@@H]1[C@H](Oc1c(C)cc(Cl)cc1-c1ccnc3cc(Cn4c(=O)ccn(CC(F)(F)F)c4=O)sc13)C2 [Example 619, 3-[[7-[5-chloro-2-[[(1S,4R,5R)-3-ethyl-3-azabicyclo[2.2.1]heptan-5-yl]oxy]-3-methyl-phenyl]thieno[3,2-b]pyridin-2-yl]methyl]-1-(2,2,2-trifluoroethyl)pyrimidine-2,4-dione] | < 1 µM |
| Cc1cc(Cl)cc(-c2ccnc3cc(Cn4c(=O)ccn(CC(F)(F)F)c4=O)sc23)c1O[C@@H]1CN(C2CC(C(F)(F)F)C2)C[C@@H]1C (stereo partly drawn) [Example 644, 3-[[7-[5-chloro-3-methyl-2-[(3S,4S)-4-methyl-1-[3-(trifluoromethyl)cyclobutyl]pyrrolidin-3-yl]oxy-phenyl]thieno[3,2-b]pyridin-2-yl]methyl]-1-(2,2,2-trifluoroethyl)pyrimidine-2,4-dione] | < 1 µM |

Second part, the compound after the results:

| IC50 | SMILES |
| --- | --- |
| < 1 µM | Cc1cc(Cl)cc(-c2ccnc3cc(CN4C(=O)CCC4=O)sc23)c1OC1CCCNC1C (stereo not drawn) [Example 419, 1-[[7-[5-chloro-3-methyl-2-[(2-methyl-3-piperidyl)oxy]phenyl]thieno[3,2-b]pyridin-2-yl]methyl]pyrrolidine-2,5-dione] |
| < 1 µM | Cc1cc(Cl)cc(-c2ccnc3cc(Cn4c(=O)ccn(C)c4=O)sc23)c1OCCN [Example 552, 3-[[7-[2-(2-aminoethoxy)-5-chloro-3-methyl-phenyl]thieno[3,2-b]pyridin-2-yl]methyl]-1-methyl-pyrimidine-2,4-dione; 2,2,2-trifluoroacetic acid] |

Reference: patent US10722514B2 (FLX Bio, Inc., priority 2017, dated 2020)
